According to paper PMC5438973 (Frontiers in Psychiatry, 2017):
“And” between values parts separate entries of the source, which are not always exact repeats. Equal entries are not always repeated.

What was measured:
h5-HT2B [1] = molecular target: T1, h5-HT2B (Homo sapiens, UniProt P41595); test: Radioligand binding, human cloned h5-HT2B
T1 construct: expressed in transfected cells; host or cells: AV12 cells
Protocol: (§1) Binding affinities at the serotonin receptors were determined by standard radioligand-binding methods using human cloned receptors as reported in the literature ([14], [15]).

h5-HT7 = molecular target: T2, h5-HT7 (Homo sapiens, UniProt P34969); test: Radioligand binding, human cloned h5-HT7
T2 construct: expressed in transfected cells
Protocol: as §1

h5-HT2A [2] = molecular target: T3, h5-HT2A (Homo sapiens, UniProt P28223); test: Radioligand binding, human cloned h5-HT2A
T3 construct: expressed in transfected cells; host or cells: AV12 cells
Protocol: as §1

h5-HT1D = molecular target: T4, h5-HT1D (Homo sapiens, UniProt P28221); test: Radioligand binding, human cloned h5-HT1D; conditions: agonist radioligand, read-out: Affinity, Mean
T4 construct: expressed in transfected cells
Protocol: as §1

Male, Wistar rats = test: Schedule-induced polydipsia; assay type: in vivo, rat; conditions: for Decrease of excessive water consumption: sc
Description: Rats were used in these experiments as they have been utilized for such studies in the past with great success in generating significant polydipsia ([16]). Male, Wistar rats were singly housed, and maintained at approximately 85% of their free-feeding weights with free access to water. Twelve adult male, Wistar rats (Harlan Industries, Indianapolis, IN, USA) were used. They were allowed to acclimate to our vivarium for at least 3 days prior to testing. They were 2 months old at the start of the experiments that lasted approximately 6–8 months and were without explicit experimental experience prior to this study. The rats were singly housed, and maintained at approximately 86–91% of their free-feeding weights with post session supplemental feeding of Lab Diet #5001 for rodents (PMI Nutrition International Inc., St. Louis, MO, USA). Body weights were corrected for the normal growth curve of Wistar rats such that actual body weight of each rat increased over the experimental time frame. Water was available continuously in the individual home cages. Rats were inspected daily 7 days/week by experimenters and veterinary staff.
The experiments were conducted using operant behavior test chambers ENV-007 (Med Associates Inc., Georgia, VT, USA), 30.5 cm × 24.1 cm × 29.2 cm. The test chambers were contained within light and sound attenuating shells. A food trough was mounted 2 cm off the grid floor on the centerline. Two response levers were centered 8 cm off the centerline and 7 cm off the grid floor. Three lights were located above each response lever at 15 cm off the grid floor. All events were controlled and lever-press data were recorded by a Compaq computer running MED-PC Version IV (Med Associates Inc., Georgia, VT, USA). The water bottle located within each chamber was weighed before and after experimental sessions.
Experimental sessions lasted 90 min. Test compounds or drug vehicle were administered on Tuesdays and Fridays, given the stability of performance (within 15% variation of the individual animal). Non-injection, control performances were on Thursdays. […] Dose-effect curves and drug interaction data were created by repeated testing in groups of five to eight rats. Test compounds were administered as described in figure legends. The effects of the compound are expressed as a percent of control for each individual animal. Results were analyzed by ANOVA followed by Dunnett’s multiple comparison (p < 0.05).
Thus, in keeping with the guidelines of animal care and use followed here, we utilized the minimum number of animals required for signal detection.

α1 = test: CEREP broad receptor screening panel; assay type: binding; parameters: dose or concentration left out as unconfirmed; conditions: CPD 1 (table title), duplicate
Protocol: (§2) Additional selectivity assessment of CPD 1 was performed at CEREP. Methods are available for the multiple assays utilized at http://www.cerep.fr/cerep/users/pages/catalog/assay/catalog.asp. The specific ligand binding to the receptors is defined as the difference between the total binding and the non-specific binding determined in the presence of an excess of unlabeled ligand.

L-Verapamil site = test: CEREP broad receptor screening panel; assay type: binding; parameters: dose or concentration left out as unconfirmed; conditions: CPD 1 (table title), duplicate
Protocol: as §2

h5-HT1F = molecular target: T5, h5-HT1F (Homo sapiens, UniProt P30939); test: Radioligand binding, human cloned h5-HT1F; conditions: agonist radioligand, read-out: Affinity, Mean
T5 construct: expressed in transfected cells
Protocol: as §1

σ = test: CEREP broad receptor screening panel; assay type: binding; conditions: CPD 1 10 mM (table title), duplicate
Protocol: as §2

β2 = molecular target: T6, β2 (Homo sapiens, UniProt P07550); test: CEREP broad receptor screening panel; assay type: binding; conditions: CPD 1 10 µM (table title), duplicate
T6 construct: CEREP
Protocol: as §2

α2 = test: CEREP broad receptor screening panel; assay type: binding; conditions: CPD 1 10 mM (table title), duplicate
Protocol: as §2

M1 = molecular target: T7, M1 (Homo sapiens, UniProt P11229); test: CEREP broad receptor screening panel; assay type: binding; conditions: CPD 1 10 µM (table title), duplicate
T7 construct: CEREP
Protocol: as §2

H2 = molecular target: T8, H2 (Homo sapiens, UniProt P25021); test: CEREP broad receptor screening panel; assay type: binding; conditions: CPD 1 10 µM (table title), duplicate
T8 construct: CEREP
Protocol: as §2

h5-HT2C [3] = molecular target: T9, h5-HT2C (Homo sapiens, UniProt P28335); test: Radioligand binding, human cloned h5-HT2C; conditions: agonist radioligand, read-out: Affinity, Mean
T9 construct: expressed in transfected cells; host or cells: AV12 cells
Protocol: as §1

Male, NIH Swiss mice [4] = test: Nestlet-shredding; conditions: 8/dose group
Male, NIH Swiss mice [5] = test: Rotarod performance; assay type: in vivo, mouse; conditions: mice, 10 mg/kg
Description: Mice were not pretrained on this task.

h5-HT1A = molecular target: T10, h5-HT1A (Homo sapiens, UniProt P08908); test: Radioligand binding, human cloned h5-HT1A; conditions: agonist radioligand, read-out: Affinity, Mean
T10 construct: expressed in transfected cells
Protocol: as §1

h5-HT2B [6] = molecular target: T1, h5-HT2B; test: GTP-γ-[35S] functional assay (SPA), AV12 cells; assay type: biochemical
Description: (§3) 5-HT2 receptors are functionally coupled to specific G-proteins. Agonist activation of 5-HT2 G-protein coupled receptors results in the release of GDP from alpha-subunit (G alpha q or G alpha i) of the G-protein and the subsequent binding of GTP. The binding of the stable analog GTP-g-[^35S] is an indicator of receptor activation. Human cloned 5-HT2A, −2B, and −2C receptors were expressed in AV12 cells. GTP-g-[^35S] nucleotide exchange scintillation proximity assay (SPA) was used to measure binding as previously described ([14]).

h5-HT2C [7] = molecular target: T9, h5-HT2C; test: GTP-γ-[35S] functional assay (SPA), AV12 cells; assay type: biochemical
Description: as §3

h5-HT2A [8] = molecular target: T3, h5-HT2A; test: GTP-γ-[35S] functional assay (SPA), AV12 cells; assay type: biochemical
Description: as §3

[9] = 10 mg/kg, five consecutive days
[10] = GTPgs functional assay, human recombinant cell line

T3 sequence (P28223 whole entry): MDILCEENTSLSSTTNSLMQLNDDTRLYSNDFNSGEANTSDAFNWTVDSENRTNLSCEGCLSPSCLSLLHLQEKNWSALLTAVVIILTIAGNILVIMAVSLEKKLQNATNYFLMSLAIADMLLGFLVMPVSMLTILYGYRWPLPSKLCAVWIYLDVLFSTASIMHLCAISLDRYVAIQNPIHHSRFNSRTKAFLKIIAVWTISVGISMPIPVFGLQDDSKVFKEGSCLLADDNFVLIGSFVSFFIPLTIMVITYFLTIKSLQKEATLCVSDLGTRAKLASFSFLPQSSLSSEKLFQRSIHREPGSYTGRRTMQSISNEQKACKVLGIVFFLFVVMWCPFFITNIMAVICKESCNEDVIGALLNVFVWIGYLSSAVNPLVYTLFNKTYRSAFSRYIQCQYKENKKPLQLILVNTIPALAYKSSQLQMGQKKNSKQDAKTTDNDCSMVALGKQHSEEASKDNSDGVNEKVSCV
T9 sequence (P28335 33-458): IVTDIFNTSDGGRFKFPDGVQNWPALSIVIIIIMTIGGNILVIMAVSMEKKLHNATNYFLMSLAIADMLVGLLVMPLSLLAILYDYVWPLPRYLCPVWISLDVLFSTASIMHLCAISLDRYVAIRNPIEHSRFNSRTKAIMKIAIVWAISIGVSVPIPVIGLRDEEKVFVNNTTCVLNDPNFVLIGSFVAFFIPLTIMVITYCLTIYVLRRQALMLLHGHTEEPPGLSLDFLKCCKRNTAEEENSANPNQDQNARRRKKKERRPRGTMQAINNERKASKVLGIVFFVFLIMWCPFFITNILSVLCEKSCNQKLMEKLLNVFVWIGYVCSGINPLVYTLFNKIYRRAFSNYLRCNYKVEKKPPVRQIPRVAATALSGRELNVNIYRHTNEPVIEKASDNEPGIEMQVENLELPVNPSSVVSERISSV
T1 sequence (P41595 whole entry): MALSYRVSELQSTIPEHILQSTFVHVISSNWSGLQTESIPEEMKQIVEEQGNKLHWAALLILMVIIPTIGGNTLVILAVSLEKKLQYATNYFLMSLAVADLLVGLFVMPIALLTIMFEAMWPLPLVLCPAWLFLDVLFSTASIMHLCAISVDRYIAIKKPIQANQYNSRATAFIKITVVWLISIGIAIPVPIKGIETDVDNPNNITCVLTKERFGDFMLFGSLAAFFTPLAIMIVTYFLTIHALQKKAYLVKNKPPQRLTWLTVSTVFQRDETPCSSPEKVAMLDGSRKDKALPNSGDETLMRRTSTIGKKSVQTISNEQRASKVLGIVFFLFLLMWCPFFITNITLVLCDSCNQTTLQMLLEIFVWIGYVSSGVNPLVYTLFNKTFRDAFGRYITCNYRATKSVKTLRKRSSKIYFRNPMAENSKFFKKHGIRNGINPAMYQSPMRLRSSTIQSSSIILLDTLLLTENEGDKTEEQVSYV
T2 sequence (P34969 whole entry): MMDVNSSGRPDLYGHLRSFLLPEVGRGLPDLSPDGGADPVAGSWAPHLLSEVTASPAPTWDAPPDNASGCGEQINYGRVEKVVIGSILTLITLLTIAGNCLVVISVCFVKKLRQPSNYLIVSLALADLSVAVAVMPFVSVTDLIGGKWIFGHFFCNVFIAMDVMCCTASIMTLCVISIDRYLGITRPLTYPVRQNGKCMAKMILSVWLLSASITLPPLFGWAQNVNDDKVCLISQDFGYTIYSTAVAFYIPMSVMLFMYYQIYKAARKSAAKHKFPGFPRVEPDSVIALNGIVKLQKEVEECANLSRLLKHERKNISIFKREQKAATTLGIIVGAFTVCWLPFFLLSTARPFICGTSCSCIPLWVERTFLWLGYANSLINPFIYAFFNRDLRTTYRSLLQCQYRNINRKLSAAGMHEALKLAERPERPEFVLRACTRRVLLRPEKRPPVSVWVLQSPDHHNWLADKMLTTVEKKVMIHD
T7 sequence (P11229 whole entry): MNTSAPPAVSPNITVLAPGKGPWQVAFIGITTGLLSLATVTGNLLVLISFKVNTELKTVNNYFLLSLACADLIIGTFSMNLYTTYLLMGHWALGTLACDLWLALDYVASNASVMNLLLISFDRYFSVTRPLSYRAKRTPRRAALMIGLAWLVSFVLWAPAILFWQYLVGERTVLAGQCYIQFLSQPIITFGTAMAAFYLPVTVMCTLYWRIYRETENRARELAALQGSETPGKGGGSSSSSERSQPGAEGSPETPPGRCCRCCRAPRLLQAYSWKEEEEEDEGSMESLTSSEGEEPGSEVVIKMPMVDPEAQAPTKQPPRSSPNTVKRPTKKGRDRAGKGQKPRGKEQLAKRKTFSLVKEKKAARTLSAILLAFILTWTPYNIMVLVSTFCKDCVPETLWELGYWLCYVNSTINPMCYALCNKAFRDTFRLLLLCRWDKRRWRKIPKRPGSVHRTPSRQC
T6 sequence (P07550 whole entry): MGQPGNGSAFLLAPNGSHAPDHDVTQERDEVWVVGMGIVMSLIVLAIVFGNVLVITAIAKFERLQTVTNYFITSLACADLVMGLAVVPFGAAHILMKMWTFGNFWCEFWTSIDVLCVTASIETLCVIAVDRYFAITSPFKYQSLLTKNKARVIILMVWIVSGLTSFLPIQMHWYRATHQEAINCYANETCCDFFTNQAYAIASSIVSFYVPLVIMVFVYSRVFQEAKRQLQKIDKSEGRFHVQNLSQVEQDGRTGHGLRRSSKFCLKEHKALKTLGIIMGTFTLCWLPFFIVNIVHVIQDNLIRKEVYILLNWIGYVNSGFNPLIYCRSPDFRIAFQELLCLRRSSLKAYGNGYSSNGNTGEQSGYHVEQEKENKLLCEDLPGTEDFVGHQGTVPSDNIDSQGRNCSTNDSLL
T4 sequence (P28221 whole entry): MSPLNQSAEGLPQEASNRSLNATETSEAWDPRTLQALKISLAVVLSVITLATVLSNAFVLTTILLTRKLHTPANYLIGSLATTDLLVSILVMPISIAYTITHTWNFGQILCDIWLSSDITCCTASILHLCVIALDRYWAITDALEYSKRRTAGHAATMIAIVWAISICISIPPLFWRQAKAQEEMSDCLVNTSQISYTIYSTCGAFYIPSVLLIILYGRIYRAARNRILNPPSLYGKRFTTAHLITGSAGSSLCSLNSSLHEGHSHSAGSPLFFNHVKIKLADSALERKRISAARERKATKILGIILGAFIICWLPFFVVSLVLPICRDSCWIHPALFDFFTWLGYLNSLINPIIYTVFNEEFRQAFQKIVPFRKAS
T8 sequence (P25021 whole entry): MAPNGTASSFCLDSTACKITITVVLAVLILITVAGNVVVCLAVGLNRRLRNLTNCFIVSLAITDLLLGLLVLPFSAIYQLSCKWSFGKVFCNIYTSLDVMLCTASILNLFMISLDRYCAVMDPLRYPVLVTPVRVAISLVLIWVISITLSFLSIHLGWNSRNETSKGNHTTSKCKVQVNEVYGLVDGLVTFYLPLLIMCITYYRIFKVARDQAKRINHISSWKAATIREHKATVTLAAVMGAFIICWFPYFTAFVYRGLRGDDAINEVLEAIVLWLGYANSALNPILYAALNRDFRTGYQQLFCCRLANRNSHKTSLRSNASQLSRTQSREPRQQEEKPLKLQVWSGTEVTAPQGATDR
T10 sequence (P08908 whole entry): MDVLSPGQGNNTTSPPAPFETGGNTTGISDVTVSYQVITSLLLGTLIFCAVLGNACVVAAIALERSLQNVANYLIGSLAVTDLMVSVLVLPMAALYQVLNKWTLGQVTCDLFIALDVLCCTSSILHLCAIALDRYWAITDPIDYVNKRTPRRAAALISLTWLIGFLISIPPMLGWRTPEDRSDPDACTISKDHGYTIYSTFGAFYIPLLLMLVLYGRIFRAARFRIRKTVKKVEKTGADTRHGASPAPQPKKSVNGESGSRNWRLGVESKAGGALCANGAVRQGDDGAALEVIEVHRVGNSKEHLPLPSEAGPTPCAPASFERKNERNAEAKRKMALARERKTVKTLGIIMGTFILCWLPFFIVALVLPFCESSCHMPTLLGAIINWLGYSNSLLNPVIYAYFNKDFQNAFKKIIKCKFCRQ
T5 sequence (P30939 whole entry): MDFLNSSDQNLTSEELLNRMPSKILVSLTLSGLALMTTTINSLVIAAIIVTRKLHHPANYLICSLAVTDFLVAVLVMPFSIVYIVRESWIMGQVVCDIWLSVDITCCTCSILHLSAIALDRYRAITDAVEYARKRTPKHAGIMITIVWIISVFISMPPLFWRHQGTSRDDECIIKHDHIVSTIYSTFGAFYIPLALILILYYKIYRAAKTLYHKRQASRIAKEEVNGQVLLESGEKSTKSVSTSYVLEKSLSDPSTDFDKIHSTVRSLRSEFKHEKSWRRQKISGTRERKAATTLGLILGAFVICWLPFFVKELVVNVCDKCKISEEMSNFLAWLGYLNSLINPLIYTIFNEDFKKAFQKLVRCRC

C[C@H]1CN(c2ccc(C(F)(F)F)c3ccoc23)CCN1 [CPD 1, (3S)-3-methyl-1-[4-(trifluoromethyl)-7-benzofuranyl]-piperazine]
Ki (h5-HT2B [1]; agonist radioligand, h5-HT2B, read-out: Affinity, Mean): 104 nM | selectivity for h5-HT2C over h5-HT2B receptors (h5-HT2B [1]; binding affinities): 50 fold | Ki (h5-HT7; agonist radioligand, h5-HT7, read-out: Affinity, Mean): > 2000 nM | inhibition at 2 µM (h5-HT7; at a concentration of 2 µM): < 50% | Ki (h5-HT2A [2]; agonist radioligand, h5-HT2A, read-out: Affinity, Mean): 47.2 nM | selectivity for h5-HT2C over h5-HT2A receptors (h5-HT2A [2]; binding affinities): 22 fold | Ki (h5-HT1D): 296 nM | Attenuation (tolerance) of the effect over 5 days (Male, Wistar rats; [9]): not a significant attenuation | Effect on excessive water consumption over 5 days of dosing (Male, Wistar rats; [9]): significantly decreased | Decrease of excessive water consumption (Male, Wistar rats; CPD 1 5.6 mg/kg sc with MDL100907 0.1 mg/kg, 30 min prior): 65% | Decrease of excessive water consumption (Male, Wistar rats; CPD 1 5.6 mg/kg, 20 min prior): 64% | Dose at which statistically significant reduction of excessive drinking was detected (Male, Wistar rats; Dunnett p < 0.05): ≥ 3 mg/kg | Effect on excessive drinking / amount of water consumed (Male, Wistar rats; given alone, acute dosing): dose-dependently suppressed | Effect on number of responses emitted (lever pressing for food) (Male, Wistar rats; given alone, acute dosing): without affecting response output | % Inhibition (α1): 82% | % Inhibition (L-Verapamil site): 59% | Ki (h5-HT1F): 540 nM | % Inhibition (σ): 100% | inhibition at 10 µM (β2): 104% | % Inhibition (α2): 70% | inhibition at 10 µM (M1): 56% | inhibition at 10 µM (H2): 70% | Ki (h5-HT2C [3]): 2 nM and 2.11 nM | Nestlet-shredding, minimal effective dose (Male, NIH Swiss mice [4]): 3 milligrams per kilogram | Rotarod falls and failures (Male, NIH Swiss mice [5]; after 5 days of dosing, 12 mice): neither falls nor failures | Rotarod failures (mice failing / tested) (Male, NIH Swiss mice [5]; day 1): 0/12 | Rotarod falls (mice falling / tested) (Male, NIH Swiss mice [5]; day 1): 2/12 | Ki (h5-HT1A): 205 nM | Functional activity (kind of agonism) (h5-HT2B [6]; 5-HT2B): partial agonist | EC50 (h5-HT2B [6]; [10]): 97 ± 23 nM | Emax (h5-HT2B [6]; [10]): 51% | Functional activity (kind of agonism) (h5-HT2C [7]; 5-HT2C): full agonist | EC50 (h5-HT2C [7]; [10]): 8.1 ± 0.5 nM | Emax (h5-HT2C [7]; [10]): 110 ± 1% | Functional activity (kind of agonism) (h5-HT2A [8]; 5-HT2A): partial agonist | EC50 (h5-HT2A [8]; [10]): 269 ± 19 nM | Emax (h5-HT2A [8]; [10]): 53 ± 2%
